Laboratory results taken from EP4603105A1, “PHARMACEUTICAL COMPOSITION CONTAINING CYCLIC COMPOUND HAVING SELECTIVE KRAS INHIBITORY EFFECT AGAINST HRAS AND NRAS” (CHUGAI SEIYAKU KABUSHIKI KAISHA, priority 2022, dated 2024).
Like-named read-outs stand apart in the source and are kept apart here.

Columns and labels:
[1] = target: GDP-bound KRAS wild-type protein (Homo sapiens, UniProt P01116); experiment: Binding to KRAS by surface plasmon resonance (SPR), dissociation constant KD
Summary of the method: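 Read-out is KD from 1:1 fitting of single-cycle kinetics sensorgrams, blank-cycle and reference-surface corrected. Proteins were GDP-loaded, biotinylated Avi-fusions freshly captured each cycle at roughly 100–300 RU. Runs were at 30°C in HBS pH 7.4 with MgCl2, GDP and 4% DMSO.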

[2] = target: GDP-bound NRAS wild-type protein (Homo sapiens, UniProt P01111); experiment: Binding to NRAS by surface plasmon resonance (SPR), KD and KD ratio to KRAS
Sequence of GDP-bound NRAS wild-type protein (P01111 whole entry): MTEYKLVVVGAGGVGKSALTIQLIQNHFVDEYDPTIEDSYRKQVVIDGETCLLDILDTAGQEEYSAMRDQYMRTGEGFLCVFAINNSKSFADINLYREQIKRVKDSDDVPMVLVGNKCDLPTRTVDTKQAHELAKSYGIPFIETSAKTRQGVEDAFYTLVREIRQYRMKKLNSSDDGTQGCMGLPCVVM
Summary of the method: (§1)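 Recombinant RAS proteins bearing a biotinylated Avi tag and loaded with GDP served as the captured ligand, recaptured fresh every cycle. Binding responses were referenced to an uncoated surface and a buffer-only blank cycle. Dissociation constants were obtained by 1:1 model fitting at 30°C.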

HRAS wild-type protein = HRAS wild-type protein (Homo sapiens, UniProt P01112); experiment: Binding to HRAS by surface plasmon resonance (SPR), KD and KD ratio to KRAS
Sequence of HRAS wild-type protein (P01112 whole entry): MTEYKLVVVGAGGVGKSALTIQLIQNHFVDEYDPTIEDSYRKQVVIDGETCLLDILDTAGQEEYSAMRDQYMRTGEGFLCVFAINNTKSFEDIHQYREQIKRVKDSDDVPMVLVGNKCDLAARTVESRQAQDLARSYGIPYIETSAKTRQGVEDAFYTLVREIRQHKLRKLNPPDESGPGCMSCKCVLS
Summary of the method: as §1

[3] = test system: human lung cancer strain NCI-H441; experiment: NCI-H441 cell proliferation inhibitory activity (CellTiter-Glo, 4 days); type: cell-based; conditions: read-out: NCl-H441 IC50
Summary of the method: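 Signal came from […] measured per well once the reagent was added. Beforehand, cells were cultured at 37°C and 5% carbon dioxide on a compound series serially diluted in dimethyl sulfoxide.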

[4] = ratio of KD for GDP-bound NRAS wild-type protein to KD for KRAS
[5] = ratio of KD for HRAS wild-type protein to KD for KRAS
[6] = Single Cycle Kinetics, 1:1 binding model
[7] = ratio of KD with respect to GDP-bound NRAS wild-type protein to KD with respect to KRAS
[8] = ratio of KD with respect to HRAS wild-type protein to KD with respect to KRAS
[9] = 50% proliferation inhibitory concentration, four days

Sequence of GDP-bound KRAS wild-type protein (P01116 1-188 isoform P01116-2): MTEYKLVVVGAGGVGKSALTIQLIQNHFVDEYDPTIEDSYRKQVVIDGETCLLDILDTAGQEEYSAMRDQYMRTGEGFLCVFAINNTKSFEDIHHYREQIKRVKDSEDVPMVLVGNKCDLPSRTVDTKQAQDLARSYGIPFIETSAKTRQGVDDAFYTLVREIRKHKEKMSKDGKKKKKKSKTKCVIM

Row | Compound | Kd ([1]; 1:1 binding model) [nM] | NRAS /KRAS [2, 4] | HRAS /KRAS (HRAS wild-type protein; [5]) | IC50 ([3]; NCI-H441 cells, 4 days) [nM] | Kd ([1]; Single Cycle Kinetics) [nM] | Kd [1, 6] [nM] | NRAS /KRAS [2, 7] | HRAS /KRAS (HRAS wild-type protein; [8]) | IC50 [3, 9] [nM]
1 | CC[C@H](C)[C@@H]1NC(=O)[C@H](COC)N(C)C(=O)C[C@@H](C(=O)N(C)C)N(C)C(=O)[C@H](C2CCCCC2)N(C)C(=O)C2(CC(C)(C)C2)NC(=O)[C@@H]2C[C@@H](OC(C)C)CN2C(=O)[C@H](CCc2ccc(Cl)c(Cl)c2)NC(=O)CN(C)C(=O)[C@H](Cc2ccc(C(F)(F)F)cc2)N2CC/C=C\C[C@@H](C2=O)N(C)C(=O)CN(C)C1=O [PP2662] | 0.29 | AA (a compound having 20 or more is denoted as AA) | A (a compound having 10 or more and less than 20 is denoted as A) | 13.1 | – | – | – | – | –
2 | CCO[C@@H]1C[C@H]2C(=O)OC3(CCC3)C(=O)N(C)[C@@H](C3CCCC3)C(=O)N(C)[C@H](C(=O)N(C)C)CC(=O)N(C)[C@@H](CC(C)C)C(=O)N[C@@H]([C@@H](C)CC)C(=O)N(C)CC(=O)N(C)[C@H]3C/C=C\CCN(C3=O)[C@@H](Cc3ccc(C(F)(F)F)cc3)C(=O)N(C)CC(=O)N[C@@H](CCc3ccc(C(F)(F)F)c(OC)c3)C(=O)N2C1 [PP3364] | – | A (a compound having 10 or more and less than 20 is denoted as A) | A (a compound having 10 or more and less than 20 is denoted as A) | 8.2 | 0.16 | – | – | – | –
3 | CCC(CC)[C@H]1C(=O)N(C)[C@H](C(=O)N2CCCCC2)CC(=O)N(C)[C@@H](COC)C(=O)N[C@@H]([C@@H](C)CC)C(=O)N(C)CC(=O)N(C)[C@H]2C/C=C\CCN(C2=O)[C@@H](Cc2ccc(C(F)(F)F)cc2)C(=O)N(C)CC(=O)N[C@@H](CCc2ccc(Cl)c(Cl)c2)C(=O)N2C[C@H](OC(C)C)C[C@H]2C(=O)NC2(CC(C)(C)C2)C(=O)N1C [PP2612] | 2.4 | AA (a compound having 20 or more is denoted as AA) | A (a compound having 10 or more and less than 20 is denoted as A) | 199 | – | – | – | – | –
4 | CCC[C@@H]1NC(=O)C[C@@H](C(=O)N(C)C)N(C)C(=O)[C@H](C2CCCC2)N(C)C(=O)C2(CC(C)(C)C2)NC(=O)[C@@H]2C[C@@H](OCC)CN2C(=O)[C@H](CCc2cc(F)c(C(F)(F)F)c(F)c2)NC(=O)CN(C)C(=O)[C@H](Cc2ccc(C(F)(F)F)cc2)N2CC/C=C\C[C@@H](C2=O)N(C)C(=O)CN(C)C(=O)[C@H]([C@@H](C)CC)NC1=O [PP3457] | – | AA (a compound having 20 or more is denoted as AA) | A (a compound having 10 or more and less than 20 is denoted as A) | 13.2 | 0.16 | – | – | – | –
5 | CCO[C@@H]1C[C@H]2C(=O)OC3(CCC3)C(=O)N(C)[C@@H](C3CCCC3)C(=O)N(C)[C@H](C(=O)N(C)C)CC(=O)N(C)[C@@H](CC(C)C)C(=O)N[C@@H]([C@@H](C)CC)C(=O)N3CCC[C@H]3C(=O)N(C)[C@H]3C/C=C\CCN(C3=O)[C@@H](Cc3ccc(C(F)(F)F)cc3)C(=O)N(C)CC(=O)N[C@@H](CCc3ccc(C(F)(F)F)c(OC)c3)C(=O)N2C1 [PP3362] | – | A (a compound having 10 or more and less than 20 is denoted as A) | A (a compound having 10 or more and less than 20 is denoted as A) | 34.3 | 0.84 | – | – | – | –
6 | CCC[C@H]1C(=O)N[C@@H]([C@@H](C)CC)C(=O)N(C2CC2)CC(=O)N(C)[C@H]2C/C=C\CCN(C2=O)[C@@H](Cc2ccc(C)cc2)C(=O)N(C)CC(=O)N[C@@H](CCc2cc(F)c(C(F)(F)F)c(F)c2)C(=O)N2C[C@H](OC3CCC3)C[C@H]2C(=O)NC2(CC(C)(C)C2)C(=O)N(C)[C@@H](C2CCCC2)C(=O)N(C)[C@H](C(=O)N(C)C)CC(=O)N1C [PP2614] | 0.27 | A (a compound having 10 or more and less than 20 is denoted as A) | A (a compound having 10 or more and less than 20 is denoted as A) | 12.1 | – | – | – | – | –
7 | CCOC[C@H]1C(=O)N[C@@H]([C@@H](C)CC)C(=O)N(C2CC2)CC(=O)N(C)[C@H]2C/C=C\CCN(C2=O)[C@@H](Cc2ccc(C)cc2)C(=O)N(C)CC(=O)N[C@@H](CCc2cc(F)c(C(F)(F)F)c(F)c2)C(=O)N2C[C@H](OCC)C[C@H]2C(=O)NC2(CC(C)(C)C2)C(=O)N(C)[C@@H](CC(C)(C)C)C(=O)N(C)[C@H](C(=O)N(C)C)CC(=O)N1C [PP2720] | 0.35 | A (a compound having 10 or more and less than 20 is denoted as A) | A (a compound having 10 or more and less than 20 is denoted as A) | 7.7 | – | – | – | – | –
8 | CCCOC[C@H]1C(=O)N[C@@H]([C@@H](C)CC)C(=O)N(C)CC(=O)N(C)[C@H]2C/C=C\CCN(C2=O)[C@@H](Cc2ccc(C(F)(F)F)cc2)C(=O)N(C)CC(=O)N[C@@H](CCc2cc(F)c(C(F)(F)F)c(F)c2)C(=O)N2C[C@H](OCC)C[C@H]2C(=O)NC2(CCCC2)C(=O)N(C)[C@@H](C2CCCC2)C(=O)N(C)[C@H](C(=O)N2CCCC2)CC(=O)N1C [PP1399] | – | – | – | – | – | 0.19 | A (a compound having 10 or more and less than 20 is denoted as A) | A (a compound having 10 or more and less than 20 is denoted as A) | 18.8
9 | CCO[C@@H]1C[C@H]2C(=O)NC3(CCC3)C(=O)N(C)[C@@H](C3CCCC3)C(=O)N(C)[C@H](C(=O)N(C)C)CC(=O)N(C)[C@@H](CC(C)(C)C)C(=O)N[C@@H]([C@@H](C)CC)C(=O)N(C)CC(=O)N(C)[C@H]3C/C=C\CCN(C3=O)[C@@H](CC3CCCCC3)C(=O)N(C)CC(=O)N[C@@H](CCc3cc(F)c(C(F)(F)F)c(F)c3)C(=O)N2C1 [PP1474] | – | – | – | – | – | 0.23 | A (a compound having 10 or more and less than 20 is denoted as A) | A (a compound having 10 or more and less than 20 is denoted as A) | 48.2
10 | CCO[C@@H]1C[C@H]2C(=O)NC3(CCCC3)C(=O)N(C)[C@@H](C3CCCC3)C(=O)N(C)[C@H](C(=O)N(C)C)CC(=O)N(C)[C@@H](CC)C(=O)N[C@@H]([C@@H](C)CC)C(=O)N(C)CC(=O)N(C)[C@H]3C[C@H](C)C(C)CN(C3=O)[C@@H](Cc3ccc(C(F)(F)F)cc3)C(=O)N(C)CC(=O)N[C@@H](CCc3cc(F)c(C(F)(F)F)c(F)c3)C(=O)N2C1 (some centres unmarked) [PP1347] | – | – | – | – | – | 0.017 | B (a compound having 3 or more and less than 10 is denoted as B) | B (a compound having 3 or more and less than 10 is denoted as B) | 3.6
11 | CCC[C@H]1C(=O)N[C@@H]([C@@H](C)CC)C(=O)N2CCC[C@H]2C(=O)N(C)[C@H]2C/C(F)=C\CCN(C2=O)[C@@H](Cc2ccc(C)cc2)C(=O)N(C)CC(=O)N[C@@H](CCc2ccc(C(F)(F)F)c(OC)c2)C(=O)N2C[C@H](OCC)C[C@H]2C(=O)N(C)C2(CCC2)C(=O)N(C)[C@@H](C2CCCC2)C(=O)N(C)[C@H](C(=O)N(C)C)CC(=O)N1C [PP3524] | – | B (a compound having 3 or more and less than 10 is denoted as B) | B (a compound having 3 or more and less than 10 is denoted as B) | 6.9 | 0.24 | – | – | – | –
12 | CCC[C@H]1C(=O)N[C@@H]([C@@H](C)CC)C(=O)N(C)CC(=O)N(C)[C@H]2C/C=C\CCN(C2=O)[C@@H](Cc2ccc(C)cc2)C(=O)N(C)CC(=O)N[C@@H](CCc2cc(F)c(C(F)(F)F)c(F)c2)C(=O)N2CC3(CC3)C[C@H]2C(=O)N(C)C2(CCC2)C(=O)N(C)[C@@H]([C@@H](C)CC)C(=O)N(C)[C@H](C(=O)N(C)C)CC(=O)N1C [PP3331] | – | A (a compound having 10 or more and less than 20 is denoted as A) | A (a compound having 10 or more and less than 20 is denoted as A) | 7 | 0.1 | – | – | – | –
13 | CC[C@H](C)[C@@H]1NC(=O)[C@H](CC)N(C)C(=O)C[C@@H](C(=O)N(C)C)N(C)C(=O)[C@H](C2CCCC2)N(C)C(=O)C2(CCC2)NC(=O)[C@@H]2C[C@H](F)CN2C(=O)[C@H](CCc2cc(F)c(C(F)(F)F)c(F)c2)NC(=O)CN(C)C(=O)[C@H](Cc2ccc(C(F)(F)F)cc2)N2CC/C=C\C[C@@H](C2=O)N(C)C(=O)CN(C)C1=O [PP1132] | – | – | – | – | – | 0.066 | A (a compound having 10 or more and less than 20 is denoted as A) | B (a compound having 3 or more and less than 10 is denoted as B) | 86.8
14 | CCCO[C@@H]1C[C@H]2C(=O)NC3(CC(C)(C)C3)C(=O)N(C)[C@@H](C3CCCC3)C(=O)N(C)[C@H](C(=O)N(C)CC)CC(=O)N(C)[C@@H](COCC)C(=O)N[C@@H]([C@@H](C)CC)C(=O)N3C[C@@H](F)C[C@H]3C(=O)N(C)[C@H]3C/C=C\CCN(C3=O)[C@@H](Cc3ccc(C(F)(F)F)cc3)C(=O)N(C)CC(=O)N[C@@H](CCc3ccc(C(F)(F)F)c(OC)c3)C(=O)N2C1 [PP3417] | – | A (a compound having 10 or more and less than 20 is denoted as A) | A (a compound having 10 or more and less than 20 is denoted as A) | 13 | 0.36 | – | – | – | –
